From a melting point compilation (Tetko et al.; mined from patent text by program, amines drawn as free bases though some values may be those of a salt) come the findings set out here.

Broadly, the melting point is the temperature, or range, at which the solid turns liquid.

Compound `Cc1c(C#N)c(=O)n(-c2cc(C(=O)OC(C)C)c(Cl)cc2F)c(=O)n1C` gave a melting point of 171 to 173 °C. Consider `CCOC(=O)c1cc2c(C=O)cc3c4ccccc4ccc3c2s1`, for which the melting point was 196 to 197 °C. Compound `CC(=NOc1ccc(F)cc1)c1cc(Cl)ccc1NS(=O)(=O)C(F)(F)F` had a melting point of 71 to 73 °C. `Cc1cc2c(CN3CCC(C)CC3)c(CO)c(Cl)nc2cc1Cl` returned a melting point of 170 to 172 °C. Consider `OCC(O)Cc1ccccc1OCc1ccc2ccccc2c1` (stereo unspecified), for which the melting point lay in the range of 119 to 120 °C. As for `CCCN(CCC)C(=O)Cc1ccc(O)c2[nH]ncc12`, the figure is 164 to 165 °C.

Consider `CCn1cc(C2CCC(=O)CC2)c2cc(C#N)ccc21`, for which the melting point was determined as 124 °C. The compound `O=C(OCc1ccccc1)c1ccc(OCc2ccccc2)cc1OCc1ccccc1` came in with a melting point of 118 to 120 °C. The value for `Fc1ccc(-n2c(CCl)csc2=S)c(F)c1F` was 127 to 130 °C; that for `COc1ccc(CCC(C)=O)cc1S(N)(=O)=O` was 176 to 179 °C; that for `CC12CC(CCCCCCl)C3c4ccc(O)cc4CCC3C1CCC2O` (stereo unspecified) was 159 °C. The value for `NNCc1ccccc1S(=O)(=O)O` was 257 to 262 °C. The value for `CCCCc1nc2cccc(C(=O)O)c2n1Cc1ccn2c(C(=O)O)c(-c3ccccc3)nc2c1` was 202 to 204 °C; that for `O=C1c2cc(Cl)c(Cl)cc2C(O)N1CCO[N+](=O)[O-]` (stereo unspecified) was 145 to 147 °C.

Take `O=C(N(C=Cc1ccc(F)cc1)C=Cc1ccc(F)cc1)C1(O)CSc2ccccc21` (stereo unspecified): the melting point lay within 150 to 151 °C. As for `O=[N+]([O-])c1ccc2c(C3=CCC4(CC3)OCCO4)c[nH]c2c1`, the figure is 259 to 261 °C; as for `COc1ccc(C(c2ccc(OC)c(O)c2)n2cncn2)cc1O`, 218 to 219 °C; as for `O=C(c1ccc2nonc2c1)N1CC=CC1`, 117 to 118 °C. As for `CCCCc1nc(SCC)c2ccccc2c1Cc1ccc(C(=O)O)cc1`, the figure is 150 °C. As for `N#CC1CN1C(=O)NC(=O)c1cccc([N+](=O)[O-])c1` (stereo unspecified), the figure is 156 to 158 °C; as for `C=CCOC(=O)c1ccc(NC(=O)C(C(=O)OC)c2ccc3c(c2)C(C)(C)CCC3(C)C)cc1` (stereo unspecified), 155 to 156 °C. `CC[Si](CC)(CC)c1cccc(-c2ccccc2)c1O` displayed a melting point of 44 to 46 °C.

As for `CC1(C)COC(=O)[C@H]1NC(=O)[C@@H](CC(=O)OCc1ccccc1)n1ccc(-c2ccc(-c3ccncc3)cc2)c1`, the melting point was in the range of 175 to 177 °C. The value for `CCC#CCOc1cc(C=O)ccc1OC` was 38 to 39 °C; that for `COC(=O)c1ccc(-n2cc3ccccc3n2)cc1` was 80 to 81 °C. The value for `CC(=O)N1CCN(C(=O)c2cc3ccnc(Cl)c3[nH]2)CC1` was 179 to 184 °C; that for `O=C1c2ccccc2C(=O)N1CC(=O)N1c2ccccc2N(Cc2ccc([N+](=O)[O-])cc2)C(=O)[C@H]2CCC[C@H]21` (relative stereo) was 224 to 225 °C. As for `c1cc(CCCn2ccnc2)cc(OCc2coc(-c3cccs3)n2)c1`, the melting point is 112 to 113 °C. Consider `CCOC(OCC)N1C(=O)C(c2ncnc3cc(OCCOC)c(OC)cc23)c2cc(F)ccc21` (stereo unspecified), for which the melting point fell in the range of 245 to 255 °C. As for `CCOC(=O)c1ccc(COCc2csc3nc(C(=O)NCc4cccc(CS(C)(=O)=O)c4)[nH]c(=O)c23)cc1`, the figure is 227 to 229 °C. `CC(C)(C)OC(=O)C[C@@H]1C[C@@H](COc2ccc(-c3ccc(C#N)c(Cl)c3)cc2)NC1=O` gave a melting point of 140 to 142 °C. As for `Cc1cc(COc2ccc(C(=O)NC[C@@H](C(=O)NO)N3CCN(S(C)(=O)=O)CC3)cc2)c2ccccc2n1`, the figure is 175 °C.

In the case of `CC(C)N=C(NC(C)C)ON=C1CCCCC1`, the melting point was in the range of 45 to 48 °C. In turn, `O=c1ccn(-c2cccc(C(F)(F)F)c2)nc1-c1ccn[nH]1` came in with a melting point of 192 to 194 °C. In turn, `CCCCNC(=O)[C@@H]1Cc2ccccc2CN1` came in with a melting point of 58 to 60 °C. As to `COC(=O)c1cc(I)cc(OC)c1O`, the melting point was 104 °C. The value for `CC(C)NC(=O)c1nc(-c2ccccc2)c(-c2ccc(=O)n(C)n2)s1` was 154 °C; that for `Nc1noc(C23CCCN(CC2)C3)n1` (stereo unspecified) was 197 to 199 °C; that for `COC(=O)C(c1ccccc1)N1C(=O)C(N=[N+]=[N-])C1Sc1nnc(C)s1` (stereo unspecified) was 81 to 84 °C. The value for `COc1c(C)c(C)c2c(c1C)C(c1ccc(C=O)cc1)C(C)(C)O2` (stereo unspecified) was 108 to 109 °C; that for `COc1c(C)c(C(O)(c2cccnc2)C(C)C)c(OC)c2ccccc12` (stereo unspecified) was 130 to 131 °C; that for `CC(=O)N1N=C(c2ccncc2)OC1c1ccc(Cl)c(Cl)c1` (stereo unspecified) was 101 to 104 °C. As for `CC(C)n1nc(-c2cnc(Nc3ccccc3)nc2-c2ccccc2)ccc1=O`, the figure is 200 to 202 °C; as for `CCCN(CCC)CCc1ccc(OC)c2[nH]c(=O)[nH]c12`, 35 °C; as for `NCC1CN(c2c(F)cc3c(=O)c(C(=O)O)cn(C4CC4)c3c2F)C1`, 190 to 195 °C. With `CCOc1ccc(S(C)(=O)=O)cc1C(=O)O`, the melting point was in the range of 139 to 141 °C. Compound `COC(=O)c1cc2c(cc1O)OCO2` showed a melting point of 100 to 101 °C. As to `CCC(CC)c1nn(-c2ccc(C(F)(F)F)cn2)cc1CCCO`, the melting point lay within 79 to 80 °C. As for `CCOC(=O)c1c(CN2CCOCC2)nc2ccc(Cl)cc2c1-c1ccccc1`, the figure is 161 to 163 °C. In turn, `CCN(CC)C(=O)Nc1ccc(S(=O)(=O)n2c(=O)n(C3CCCCCC3)c3cc(Cl)ccc32)c(OC)c1` registered a melting point of 218 °C.

In the case of `NC(=O)c1ccc(C(F)(F)F)c(Br)c1`, the melting point was in the range of 148 to 150 °C. In the case of `CC1(C)CC(=O)c2c(O)ccc(Br)c2C1`, the melting point fell in the range of 65 to 67 °C. The value for `CC(=O)[C@@H]1CC[C@@H](C)C[C@H]1O` was 46 to 46.5 °C. `CC1(C)C2CC=C(CCn3c(=O)nc(-c4ccccc4)c4cc([N+](=O)[O-])ccc43)C1C2` (stereo unspecified): the melting point lay within 80 to 81 °C.

`CCOC(=O)C(=Cc1cccn2cc(C)nc12)N=[N+]=[N-]` yielded a melting point of 121 to 123 °C. Compound `Cn1cnc2c(Cl)nccc21` had a melting point of 127 to 131 °C. As for `Cn1c(=O)c(C#N)c(N2CCN(C(=O)c3cccs3)CC2)c2cc(F)ccc21`, the figure is 286 °C. Turning to `CCOC(=O)Nc1cc(I)c(NS(C)(=O)=O)cc1OC`, the melting point lay within 153 to 155 °C.

`COC(=O)c1ccc(S(=O)(=O)C(Cn2ccnc2)c2ccccc2OC)cc1` (stereo unspecified) returned a melting point of 150 to 151 °C. For `CSc1ncnn1C[C@]1(c2ccc(F)cc2)O[C@@H]1c1cccc(Cl)c1F` (relative stereo), the melting point worked out at 88 °C.

As to `CCCCc1nc2ccc(C(C)O)cc2c(=O)n1Cc1ccc(-c2ccccc2-c2nnn[nH]2)cc1` (stereo unspecified), the melting point is 146 to 147 °C. In turn, `COC(=O)c1ccc2c(OC)ccnc2c1` displayed a melting point of 147 to 148 °C. Compound `COc1cccc(-c2nc(NC(=O)Nc3ccccn3)cs2)c1` returned a melting point of 201 to 203 °C. The value for `O=C(Nc1ccc2c(c1)OCCO2)c1ccc(-c2cccs2)cc1` was 192 to 195 °C. `O=c1cc(NCCN2CCN(c3cccc4c3OCCO4)CC2)cn[nH]1` yielded a melting point of 244 to 246 °C. The value for `C=CCON=C(CCC)C1=C(O)CC(c2ccc(OC)c(NC(C)=O)c2)CC1=O` (stereo unspecified) was 136 to 137 °C.

On to `CC(C)C(=O)CC(=O)Nc1ccccc1`, for which the melting point was in the range of 46.5 to 58.8 °C. Regarding `COC(=O)CC/C(C)=C/Cc1c(N)c2c(c(C)c1OC)COC2=O`, the melting point was in the range of 91 to 93 °C.

`CCCCCCCCc1cc2c(s1)-n1c(C)nnc1CN=C2c1ccccc1Cl` gave a melting point of 80 to 82 °C.

In turn, `CC(=O)NC[C@H]1CN(c2ccc(-c3ncon3)c(F)c2)C(=O)O1` gave a melting point of 197 to 199 °C. Regarding `OC1(c2ccc(-c3cncnc3)cc2)CN2CCC1CC2` (stereo unspecified), the melting point fell in the range of 184 to 185 °C.

In the case of `O=S(=O)(Nc1ccc(Br)cc1)C(F)(F)F`, the melting point was in the range of 52 to 54 °C. In the case of `O=C(c1ccc(-c2ccccc2)cc1)N1Cc2cccnc2Nc2ccccc21`, the melting point is 175 to 177 °C. The value for `COc1cccc(NC(=O)NC2CN(C3CCCCC3)c3ccccc3N(CC(=O)C(C)(C)C)C2=O)c1` (stereo unspecified) was 234 to 235 °C; that for `Cn1nnc2cccc(C=O)c21` was 126 °C; that for `CN(C(=O)c1cccs1)c1cccc(-c2nc(=O)c3ccccc3s2)n1` was 192 to 193 °C. The value for `CCOC(=O)Cc1ccnc(C(SC)=C(C#N)C#N)c1` was 148 to 152 °C; that for `O=C(NCCO)c1cccc(-c2ccc3c(c2)N(c2ccc(Cl)c(Cl)c2)CC3)c1` was 167 to 168 °C; that for `CCCCCCCCCCCCSCC(O)CO` (stereo unspecified) was 53 to 54 °C.

Turning to `CCCCCc1c(C(C)C)nc(C(C)C)c(CCO)c1-c1ccc(F)cc1`, the melting point was in the range of 81 to 83 °C. The value for `CCOC(=O)C(C)(NC(=O)Cc1ccc(O)c2ncccc12)C(=O)OCC` was 153 to 154 °C; that for `CC(=O)NCC1CN(c2ccc(N3CCN(c4nc(=O)n(-c5ccccc5)s4)CC3)c(F)c2)C(=O)O1` (stereo unspecified) was 245 to 247 °C; that for `Cc1ccccc1NC(=O)Nc1ccc(C(=O)N2CCCCc3ccccc32)cc1` was 182 °C. As for `OC1(O)C(F)(F)CCCC1(Cl)Cl`, the figure is 30 °C; as for `CN(c1ncnc2c1ncn2C1OC(CO)C(O)C1O)n1cccc1` (stereo unspecified), 195 to 197 °C. For the compound `CC1(O)CC(=O)OC(C=Cc2cccc(OCc3ccccc3)c2)C1` (stereo unspecified), the melting point was 122 to 124 °C. As for `CC(=O)OC1CCC2(C)C(CCC3C4CCC(C(C)=O)C4(C)CC4OC432)C1` (stereo unspecified), the figure is 133 to 136 °C; as for `CC(C)CN1C(=O)N(C)C2(NC(=O)NC2=O)c2cc(Cl)ccc21` (stereo unspecified), 118 °C; as for `COC(=O)CCC(=O)c1cccc(O)c1`, 102 to 103 °C. As for `ClC(Cl)(Cl)c1nnc(C=Cc2ccc(C=Cc3ccccc3)cc2)o1`, the figure is 176 to 178 °C; as for `CN1CCN(c2cccc3c2C[C@H](NC(=O)c2ccc(C4CCCCC4)cc2)CC3)CC1`, 224 to 226 °C.
